{"source": "patent US20100130829A1", "about": "“MATERIALS AND METHODS FOR DETECTING EARLY CELL MIGRATION EVENTS” (priority 2008, published 2010)", "target": "beta2-adrenergic receptors in A431 (Homo sapiens, UniProt P07550)", "sequence (P07550 whole entry)": "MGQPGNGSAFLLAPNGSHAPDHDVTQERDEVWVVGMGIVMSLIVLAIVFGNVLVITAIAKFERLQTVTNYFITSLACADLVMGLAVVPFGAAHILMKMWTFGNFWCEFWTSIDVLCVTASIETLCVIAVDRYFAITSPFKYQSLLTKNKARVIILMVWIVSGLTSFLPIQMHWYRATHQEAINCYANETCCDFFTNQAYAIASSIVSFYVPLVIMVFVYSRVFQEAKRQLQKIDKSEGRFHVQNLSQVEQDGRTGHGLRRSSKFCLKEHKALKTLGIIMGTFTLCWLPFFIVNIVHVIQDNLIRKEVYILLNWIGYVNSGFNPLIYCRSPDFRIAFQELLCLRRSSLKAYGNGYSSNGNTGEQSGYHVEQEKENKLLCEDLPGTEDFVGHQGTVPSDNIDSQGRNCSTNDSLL", "details": "quiescent A431 cells; epinephrine gradient; responses resembled classical dose-dependent responses", "method": "Human epidermoid carcinoma A431 cells were obtained from American Type Cell Culture. A431 cells were grown in Dulbecco's modified Eagle's medium (DMEM) supplemented with 10% fetal bovine serum (FBS), 4.5 g/liter glucose, 2 mM glutamine, and antibiotics. For cell culture, ˜4×10^4 cells suspended in 6 μl the medium containing 10% FBS were injected into the chamber, and were cultured at 37° C. under air/5% CO2 until ˜95% confluency was reached (˜1 day). To prevent drying during the culture, the biosensor device was maintained within a petri dish with a cover, and extra cell medium within the dish. The cells were then subject to starvation with the medium without any FBS for overnight. […] The optical system allows one to collect the resonant image of whole sensor at the single cell.\nComing RWG imaging system was used for label-free biosensor cell assays. The imaging system is capable of high resolution imaging, with a spatial resolution of 6 microns in the direction perpendicular to the propagation path of the coupled light, a resolution of about 150 microns in the direction parallel to the propagation path of the coupled light. The cellular responses across the whole sensor were recorded in real time at each pixel (6 microns×6 microns). The cellular responses at defined locations or zones from the inlet to the outlet were averaged to generate location-dependent cellular responses. […]", "data": [{"smiles": "CNC[C@H](O)c1ccc(O)c(O)c1", "note": "[epinephrine]", "values": [{"measurement": "chemoattractant determination from location-dependent DMR responses", "value": "not a chemoattractant"}]}]}
